This passage reports Emax, EC50 and Ki results from US10030027B2, “Soluble guanylate cyclase stimulators” (MERCK SHARP & DOHME CORP., priority 2015, dated 2018).

The target in assay [1] is sGC α1/β1 heterodimer (Homo sapiens (Human), UniProt Q02108+Q02153). Description: Cell-based sGC functional assay (cyclic GMP assay for sGC activator: CASA assay). The conditions noted are these: CHO-K1/sGC cells; for Emax: CHO-K1, activity expressed as percentage of compound A (standard), read-out: % Activation; for EC50: inflection point, 4P fit, read-out: IP. The method in brief: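 CHO-K1 cells stably expressing sGC α1/β1 were pre-incubated with or without 1 μM DETA-NO (30 min, 25 °C), then exposed to compounds for 1 hr at 37 °C with 0.5 mM IBMX. Intracellular cGMP was read by HTRF and expressed as a percentage of a reference heme-dependent activator's maximum.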

Assay [2] concerns the target human recombinant sGC enzyme (Homo sapiens (Human), UniProt Q02108+Q02153). The assay can be described thus: Size Exclusion Chromatography (SEC) competition binding assay using [3H] Ex-77B as the radioligand. The conditions noted are these: [3H] Ex-77B radioligand, 24 hours at 37° C. The method in brief: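 Recombinant human sGC binding measured by competition against tritiated Ex-77B radioligand, with non-specific binding defined by 1 μM unlabeled Ex-77B.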
In general terms: SEC sorts molecules by how far they enter the pores of the column.

Structures are written as SMILES.

One may read the Ki as a dissociation constant, usually derived from enzyme kinetics or from competition with a known ligand. As to `C[C@@]1(c2nc(CCC(=O)O)cs2)C(=O)Nc2nc(-c3nn(CCCC(F)(F)F)c4ncccc34)nc(N)c21` [Example 88B, (S)-3-(2-{4-amino-5-methyl-6-oxo-2-[1-(4,4,4-trifluorobutyl)-1H-pyrazolo[3,4-b]pyridin-3-yl]-6,7-dihydro-5H-pyrrolo[2,3-d]pyrimidin-5-yl}-1,3-thiazol-4-yl)propanoic acid], in assay [1], the Emax was 88% and the EC50 was determined as 1250 nM. Besides, the Ki in assay [2] stood at 0.848 nM.

As to `CC(C)(Cc1csc([C@]2(C)C(=O)Nc3nc(-c4nn(Cc5ccccc5F)c5ncc(F)cc45)nc(N)c32)n1)C(=O)O` [Example 91B, (S)-3-(2-{4-amino-2-[5-fluoro-1-(2-fluorobenzyl)-1H-pyrazolo[3,4-b]pyridin-3-yl]-5-methyl-6-oxo-6,7-dihydro-5H-pyrrolo[2,3-d]pyrimidin-5-yl}-1,3-thiazol-4-yl)-2,2-dimethylpropanoic acid], in assay [1], the Emax is 123% and the EC50 was found to be 132 nM. Besides, in assay [2], the Ki was determined as 0.18 nM.

As to `CC1(c2nc(-c3cccc(C(=O)O)c3)cs2)C(=O)Nc2nc(-c3nn(CCC(F)(F)C(F)(F)F)c4cc(Cl)ccc34)nc(N)c21` (stereo not drawn) [Example 93A, 3-(2-{4-amino-2-[6-chloro-1-(3,3,4,4,4-pentafluorobutyl)-1H-indazol-3-yl]-5-methyl-6-oxo-6,7-dihydro-5H-pyrrolo[2,3-d]pyrimidin-5-yl}-1,3-thiazol-4-yl)benzoic acid], in assay [1], the Emax was 63% and the EC50 stood at 575 nM. The Ki in assay [2] is 0.602 nM.

`CC(C)(Cc1csc([C@]2(C)C(=O)Nc3nc(-c4nn(CCC(F)(F)C(F)(F)F)c5ncccc45)nc(N)c32)n1)C(=O)NO` [Example 97B, (S)-3-(2-{4-Amino-5-methyl-6-oxo-2-[1-(3,3,4,4,4-pentafluorobutyl)-1H-pyrazolo[3,4-b]pyridin-3-yl]-6,7-dihydro-5H-pyrrolo[2,3-d]pyrimidin-5-yl}-1,3-thiazol-4-yl)-N-hydroxy-2,2-dimethylpropanamide]: in assay [1], the Emax turned out to be 122% and the EC50 is 1150 nM. In addition, the Ki in assay [2] turned out to be 0.799 nM.

Take `CC1(c2nn(CC(=O)O)c(=O)o2)C(=O)Nc2nc(-c3nn(CCC(F)(F)C(F)(F)F)c4cc(Cl)ccc34)nc(N)c21` (stereo not drawn) [Example 98A, [5-{4-Amino-2-[6-chloro-1-(3,3,4,4,4-pentafluorobutyl)-1H-indazol-3-yl]-5-methyl-6-oxo-6,7-dihydro-5H-pyrrolo[2,3-d]pyrimidin-5-yl}-2-oxo-1,3,4-oxadiazol-3(2H)-yl]acetic acid]: in assay [1], the Emax was 83% and the EC50 worked out at 254 nM. Besides, the Ki in assay [2] amounted to 0.395 nM.

As to `C[C@@]1(c2ccc(CCC(=O)NCC(=O)O)cc2)C(=O)Nc2nc(-c3nn(Cc4ccccc4F)c4ncccc34)nc(N)c21` [Example 100B, (S)-(3-(4-{4-Amino-2-[1-(2-fluorobenzyl)-1H-pyrazolo[3,4-b]pyridin-3-yl]-5-methyl-6-oxo-6,7-dihydro-5H-pyrrolo[2,3-d]pyrimidin-5-yl}phenyl)propanoyl)glycine], in assay [1], the Emax was 109% and the EC50 is 1800 nM. For the same compound, in assay [2], the Ki is 0.039 nM.

Turning to `CC(C)(NC(=O)CCc1ccc([C@]2(C)C(=O)Nc3nc(-c4nn(Cc5ccccc5F)c5ncccc45)nc(N)c32)cc1)C(=O)O` [Example 101B, (S)-2-(3-(4-{4-amino-2-[1-(2-fluorobenzyl)-1H-pyrazolo[3,4-b]pyridin-3-yl]-5-methyl-6-oxo-6,7-dihydro-5H-pyrrolo[2,3-d]pyrimidin-5-yl}phenyl)propanamido)-2-methylpropanoic acid], in assay [1], the Emax worked out at 111% and the EC50 came out at 2340 nM. Further, the Ki in assay [2] was found to be 0.026 nM.

On to `C[C@H](NC(=O)CCc1ccc([C@]2(C)C(=O)Nc3nc(-c4nn(Cc5ccccc5F)c5ncccc45)nc(N)c32)cc1)C(=O)O` [Example 103B, (5S)-(3-(4-{4-amino-2-[1-(2-fluorobenzyl)-1H-pyrazolo[3,4-b]pyridin-3-yl]-5-methyl-6-oxo-6,7-dihydro-5H-pyrrolo[2,3-d]pyrimidin-5-yl}phenyl)propanoyl)-L-alanine], for which, in assay [1], the Emax stood at 104% and the EC50 was 2950 nM. Also, in assay [2], the Ki came to 0.045 nM.

As to `CC[C@H](NC(=O)CCc1ccc([C@]2(C)C(=O)Nc3nc(-c4nn(Cc5ccccc5F)c5ncccc45)nc(N)c32)cc1)C(=O)O` [Example 105B, (5S,2S)-2-(3-(4-{4-amino-2-[1-(2-fluorobenzyl)-1H-pyrazolo[3,4-b]pyridin-3-yl]-5-methyl-6-oxo-6,7-dihydro-5H-pyrrolo[2,3-d]pyrimidin-5-yl}phenyl)propanamido)butanoic acid], in assay [1], the Emax was 97% and the EC50 was 2160 nM. In addition, the Ki in assay [2] worked out at 0.042 nM.

In the case of `C[C@@]1(c2ccc(CCC(=O)N[C@H](CO)C(=O)O)cc2)C(=O)Nc2nc(-c3nn(Cc4ccccc4F)c4ncccc34)nc(N)c21` [Example 106B, (5S)-(3-(4-{4-amino-2-[1-(2-fluorobenzyl)-1H-pyrazolo[3,4-b]pyridin-3-yl]-5-methyl-6-oxo-6,7-dihydro-5H-pyrrolo[2,3-d]pyrimidin-5-yl}phenyl)propanoyl)-D-serine], in assay [1], the Emax came to 70% and the EC50 worked out at 1500 nM. Besides, the Ki in assay [2] stood at 0.058 nM.

On to `C[C@@]1(c2ccc(CCC(=O)NCc3nn[nH]n3)cc2)C(=O)Nc2nc(-c3nn(Cc4ccccc4F)c4ncccc34)nc(N)c21` [Example 108B, (S)—N-((2H-Tetrazol-5-yl)methyl)-3-(4-{4-amino-2-[1-(2-fluorobenzyl)-1H-pyrazolo[3,4-b]pyridin-3-yl]-5-methyl-6-oxo-6,7-dihydro-5H-pyrrolo[2,3-d]pyrimidin-5-yl}phenyl)propanamide], for which, in assay [1], the Emax came out at 122% and the EC50 was 842 nM. Moreover, the Ki in assay [2] was determined as 0.056 nM.

In the case of `CC1(c2cnn(CCC(=O)O)n2)C(=O)Nc2nc(-c3nn(CCC(F)(F)C(F)(F)F)c4ncccc34)nc(N)c21` (stereo not drawn) [Example 109B, 3-(4-{4-Amino-5-methyl-6-oxo-2-[1-(3,3,4,4,4-pentafluorobutyl)-1H-pyrazolo[3,4-b]pyridin-3-yl]-6,7-dihydro-5H-pyrrolo[2,3-d]pyrimidin-5-yl}-2H-1,2,3-triazol-2-yl)propanoic acid], in assay [1], the Emax is 78% and the EC50 was determined as 1660 nM. For the same compound, the Ki in assay [2] worked out at 2 nM.

Turning to `C[C@@]1(c2ccc(CCC(=O)O)cc2)C(=O)Nc2nc(-c3nn(Cc4ccccc4F)c4cc(Cl)c(O)cc34)nc(N)c21` [Example 110B, (S)-3-(4-{4-Amino-2-[6-chloro-1-(2-fluorobenzyl)-5-hydroxy-1H-indazol-3-yl]-5-methyl-6-oxo-6,7-dihydro-5H-pyrrolo[2,3-d]pyrimidin-5-yl}phenyl)propanoic acid], in assay [1], the Emax was found to be 78% and the EC50 was found to be 1130 nM. For the same compound, the Ki in assay [2] is 0.361 nM.

For `CCCCn1nc(-c2nc(N)c3c(n2)NC(=O)[C@@]3(C)c2ccc(CCC(=O)O)cc2)c2ccc(C)nc21` [Example 111B, (S)-3-{4-{4-amino-2-(1-butyl-6-methyl-1H-pyrazolo[3,4-b]pyridin-3-yl)-5-methyl-6-oxo-6,7-dihydro-5H-pyrrolo[2,3-d]pyrimidin-5-yl}phenyl}propanoic acid], in assay [1], the Emax is 86% and the EC50 came to 9250 nM. The Ki in assay [2] was 1.11 nM.

Regarding `CC1(c2ccc(CCCC(=O)O)cc2)C(=O)Nc2nc(-c3nn(Cc4ccccc4F)c4ncccc34)nc(N)c21` (stereo not drawn) [Example 113B, 4-(4-{4-Amino-2-[1-(2-fluorobenzyl)-1H-pyrazolo[3,4-b]pyridin-3-yl]-5-methyl-6-oxo-6,7-dihydro-5H-pyrrolo[2,3-d]pyrimidin-5-yl}phenyl)butanoic acid], in assay [1], the Emax stood at 89% and the EC50 came to 568 nM. Moreover, the inhibition constant (Ki) in assay [2] came to 0.064 nM.

In the case of `CC1(c2ccc(CC(=O)O)cc2)C(=O)Nc2nc(-c3nn(Cc4ccccc4F)c4ncccc34)nc(N)c21` (stereo not drawn) [Example 114A, (4-{4-Amino-2-[1-(2-fluorobenzyl)-1H-pyrazolo[3,4-b]pyridin-3-yl]-5-methyl-6-oxo-6,7-dihydro-5H-pyrrolo[2,3-d]pyrimidin-5-yl}phenyl)acetic acid], in assay [1], the Emax was found to be 108% and the EC50 was 1340 nM. In assay [2], the Ki is 0.092 nM.

In the case of `CC1(c2ccc(CCCC(=O)O)cc2)C(=O)Nc2nc(-c3nn(CCC(F)(F)C(F)(F)F)c4ncccc34)nc(N)c21` (stereo not drawn) [Example 116A, 4-(4-{4-amino-5-methyl-6-oxo-2-[1-(3,3,4,4,4-pentafluorobutyl)-1H-pyrazolo[3,4-b]pyridin-3-yl)-6,7-dihydro-5H-pyrrolo[2,3-d]pyrimidin-5-yl}phenyl)butanoic acid], in assay [1], the Emax amounted to 78% and the EC50 was 608 nM. For the same compound, the Ki in assay [2] was determined as 0.296 nM.

As to `CC1(c2ccc(CC(=O)O)cc2)C(=O)Nc2nc(-c3nn(CCC(F)(F)C(F)(F)F)c4ncccc34)nc(N)c21` (stereo not drawn) [Example 118A, 2-(4-{4-amino-5-methyl-6-oxo-2-[1-(3,3,4,4,4-pentafluorobutyl)-1H-pyrazolo[3,4-b]pyridin-3-yl]-6,7-dihydro-5H-pyrrolo[2,3-d]pyrimidin-5-yl}phenyl)acetic acid], in assay [1], the Emax turned out to be 86% and the EC50 came to 3510 nM. In assay [2], the Ki stood at 0.166 nM.

Regarding `CC1(c2ccc(CCC(=O)O)c(C#N)c2)C(=O)Nc2nc(-c3nn(CCC(F)(F)C(F)(F)F)c4cc(Cl)ccc34)nc(N)c21` (stereo not drawn) [Example 120B, 3-(4-{4-Amino-2-[6-chloro-1-(3,3,4,4,4-pentafluorobutyl)-1H-indazol-3-yl]-5-methyl-6-oxo-6,7-dihydro-5H-pyrrolo[2,3-d]pyrimidin-5-yl}-2-cyanophenyl)propanoic acid], in assay [1], the Emax worked out at 127% and the EC50 is 1930 nM. For the same compound, the Ki in assay [2] is 0.41 nM.
